Experimental data as given in patent US20260344670A1, “BIXLOZONE MIXTURES WITH PETHOXAMID” (FMC CORPORATION, priority 2022, published 2026).

Key:
Assay type in all cases: in vivo
weeds [1] = assay: Example 5: pre-emergence weed control on corn at relatively low application rates of pethoxamid (Table 13); conditions: 300 g/ha pethoxamid
Method: (§1) The herbicidal compounds bixlozone and pethoxamid were applied in a variety of forms and at a variety of amounts, application rates, and normalities. Efficacy of the herbicidal compositions was evaluated with reference to a scale of 0% to 100% in comparison with untreated control plots. 0 means no damage to the harmful plants and 100 means complete destruction of the harmful plants. Plants per square meter is indicated by “pl/m^2”, and grams per hectare is indicated by “g/ha”. The acronym “EC” means emulsifiable concentrate (a liquid, homogenous formulation to be applied as an emulsion after dilution with water); “SC” means suspension concentrate (a stable suspension of active ingredient(s) with water as the fluid); “ZC” refers to a mixed formulation of CS and SC (a stable suspension of capsules and active ingredient(s) in a fluid, normally intended for dilution with water before use).
(§2) Various forms, compositions, and mixtures of bixlozone and pethoxamid were applied to corn before emergence. […] Mixtures of bixlozone with 300 g/ha pethoxamid improved weed spectrum on a range of broad leaf weeds (e.g., SOLNI and ABUTH). Combinations of bixlozone and pethoxamid in pre-emergence applications were very safe with no clear pethoxamid rate effect.

weeds [2] = assay: Example 3: pre-emergence weed control on corn at relatively high application rates of pethoxamid (Tables 8-11); conditions: 1200 g/ha pethoxamid
Source text: [formula] • where ppm=milligrams of active ingredient (=a.i.) per liter of spray mixture X=% action by component A using p ppm of active ingredient Y=% action by component B using q ppm of active ingredient. If the ratio R defined as the action actually observed (O) divided by the expected action (E) is >1 then the action of the combination is superadditive, i.e. there is a synergistic effect. For a more detailed description of the Colby formula, see Colby, S. R. “Calculating Synergistic and Antagonistic Responses of Herbicide Combination”, Weeds, Vol. 15, pages 20-22; 1967; see also Limpel et al., Proc. NEWCC 16:48-53 (1962).
As used herein, rating timings correspond to the following: A1=weed assessment at BBCH 11-12; A2=4 weeks after the application; A3=when ZEAMX crop reaches BBCH 18 (row closure); and A4=BBCH 51-59 of the ZEAMX crop.
The herbicidal compounds bixlozone and pethoxamid were applied in a variety of forms and at a variety of amounts, application rates, and normalities. Efficacy of the herbicidal compositions was evaluated with reference to a scale of 0% to 100% in comparison with untreated control plots. 0 means no damage to the harmful plants and 100 means complete destruction of the harmful plants. Plants per square meter is indicated by “pl/m^2”, and grams per hectare is indicated by “g/ha”. […]

weeds [3] = assay: Example 4: pre-emergence weed control on corn at relatively medium application rates of pethoxamid (Table 12); conditions: 800 g/ha pethoxamid
Method: as §1
as §2, with “800” for “300”, “CHEAL” for “SOLNI”, “ABUTH) and grasses (e.g., ECHCG, DIGSA, and SETVI).” for “ABUTH).”

## CC1(C)CON(Cc2ccc(Cl)cc2Cl)C1=O [bixlozone]
Weeds [1]
  efficacy (in words): minimal differences in performance between SC and CS were observed, except on POLSS, SOLNI, ABUTH, and ECHCG
Weeds [2]
  efficacy (in words): minimal differences in performance between SC and CS were observed, except on CHEAL and ECHCG
Weeds [3]
  efficacy (in words): minimal differences in performance between SC and CS were observed, except on CHEAL and ABUTH
